Patent US11179356B2, “Methods and compositions to modulate the gut microbiota and to manage weight” (Xeno Biosciences Inc., priority 2015, dated 2021)

Columns and labels:
[1] = over one year; cited from earlier work
gut microbiota = assay: Oral gavage of non-formulated peroxide, 16S rRNA sequencing of fecal samples (Example 7); type: in vivo, Sprague Dawley lean rats; conditions: rats, oral gavage three times daily in acidified water, total dose 600 mg/kg body weight, 3 days
Experimental: (§1) 6-7 week old Sprague Dawley lean rats were orally gavaged three times daily either with carbamide peroxide dissolved in acidified water as the treatment arm (total dose=600 mg/kg body weight) or with acidified water alone as the control arm (12 […] per arm) for 3 days. Gavage solution was prepared immediately before oral gavaging was performed. Each rat was fed a normal chow diet throughout (Research Diets) and kept under 12 hr-12 hr light-dark cycle in its own metabolic cage. Fresh fecal samples were collected at day 0 (basal measurement, before dosing start) and at the end of day 3 (after the final dose) and immediately stored at −80 C. Later, 16S rRNA sequencing was performed to measure relative abundance of different taxa in the stool samples. Body weight and food intake were measured daily.

[2] = Oral gavage of non-formulated peroxide, body weight and food intake (Example 7); type: in vivo, Sprague Dawley lean rats; conditions: rats, oral gavage three times daily in acidified water, total dose 600 mg/kg body weight, 3 days
Experimental: as §1

| SMILES | weight loss [1] | change in gut microbiota composition between Day 0 and Day 3, treatment arm and control arm (gut microbiota) | body weight, treatment versus control arm [2] | food intake, treatment versus control arm [2] |
| --- | --- | --- | --- | --- |
| CC(C)(N)Cc1ccccc1 [Phentermine] | 4-5% | – | – | – |
| CCCCCCCCCCC[C@@H](C[C@@H]1OC(=O)[C@H]1CCCCCC)OC(=O)[C@H](CC(C)C)NC=O [Xenical] | 3-4% | – | – | – |
| NC(N)=O.OO [carbamide peroxide] | – | No significant change | no significant differences | no significant differences |
